Experiments:
Del19/T790M/C797S EGFR = assay: EGFR degradation HTRF assay in H1975-clone #28 (DTC) cells; type: cell-based; conditions: H1975 # 28 DTC (Del19/T790M/C797S), 16h treatment; for DC50: HTRF; for Dmax (%): maximum percentage of degradation
Summary of the method: (§1)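 Each homozygous H1975 clone was dosed for 16 h at 37 °C with an 8-dose, 5-fold series (top 10 uM, 0.2% DMSO). An HTRF antibody pair then measured EGFR in lysates, and a sigmoidal fit of percent inhibition gave DC50.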

L858R/T790M/C797S EGFR = target: T1, L858R/T790M/C797S EGFR (Homo sapiens, UniProt P00533, C797S/L858R/T790M); assay: EGFR degradation HTRF assay in H1975-clone #25 (LTC) cells; type: cell-based; conditions: 16h treatment; for DC50: H1975 # 25-LTC (L858R/T790M/C797S), HTRF; for Dmax: NCI-H1975, H1975 # 25-LTC (L858R/T790M/C797S), maximum percentage of degradation
T1 construct: expressed in transfected cells; host or cells: H1975 clone #25 (lentiviral over-expression, endogenous EGFR knocked out by sgRNA)
T1 sequence (P00533 25-1210 T790M/C797S/L858R): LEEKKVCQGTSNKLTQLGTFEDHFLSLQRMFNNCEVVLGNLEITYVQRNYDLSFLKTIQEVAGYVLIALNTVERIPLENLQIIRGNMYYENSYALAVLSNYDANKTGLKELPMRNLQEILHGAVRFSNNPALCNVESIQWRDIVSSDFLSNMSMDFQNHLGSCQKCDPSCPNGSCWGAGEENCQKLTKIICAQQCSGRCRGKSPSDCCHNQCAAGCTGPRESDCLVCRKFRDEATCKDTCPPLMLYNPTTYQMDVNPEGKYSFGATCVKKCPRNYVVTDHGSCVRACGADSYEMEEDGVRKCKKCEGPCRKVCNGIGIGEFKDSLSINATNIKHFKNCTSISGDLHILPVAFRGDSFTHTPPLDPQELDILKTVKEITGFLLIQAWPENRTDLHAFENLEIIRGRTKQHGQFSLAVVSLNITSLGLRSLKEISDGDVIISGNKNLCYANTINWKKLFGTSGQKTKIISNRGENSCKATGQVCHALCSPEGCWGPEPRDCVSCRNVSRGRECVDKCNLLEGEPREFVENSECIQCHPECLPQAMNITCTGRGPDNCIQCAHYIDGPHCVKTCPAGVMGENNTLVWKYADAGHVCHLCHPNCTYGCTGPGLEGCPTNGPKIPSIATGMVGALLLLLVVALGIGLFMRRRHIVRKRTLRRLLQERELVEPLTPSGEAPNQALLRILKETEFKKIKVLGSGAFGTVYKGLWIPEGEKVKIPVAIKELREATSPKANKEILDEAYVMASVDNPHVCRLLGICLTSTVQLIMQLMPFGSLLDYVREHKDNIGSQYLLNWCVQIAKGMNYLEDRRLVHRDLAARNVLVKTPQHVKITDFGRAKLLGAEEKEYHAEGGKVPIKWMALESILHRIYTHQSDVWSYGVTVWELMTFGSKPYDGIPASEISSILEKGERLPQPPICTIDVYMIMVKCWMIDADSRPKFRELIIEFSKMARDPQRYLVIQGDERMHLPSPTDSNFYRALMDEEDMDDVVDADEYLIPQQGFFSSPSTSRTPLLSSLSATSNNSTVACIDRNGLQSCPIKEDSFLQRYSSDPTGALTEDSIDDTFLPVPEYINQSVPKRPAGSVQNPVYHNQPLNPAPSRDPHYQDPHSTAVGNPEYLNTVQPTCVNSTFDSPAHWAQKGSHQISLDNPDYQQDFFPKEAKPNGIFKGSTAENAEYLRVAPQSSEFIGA
Summary of the method: as §1

Row | SMILES | DC50 (Del19/T790M/C797S EGFR) [nM] | DC50 (L858R/T790M/C797S EGFR) [nM] | Dmax (L858R/T790M/C797S EGFR) [%] | Dmax (%) (Del19/T790M/C797S EGFR)
1 | Cc1cc2cc(n1)-c1cnn(C)c1OCCC[C@@H](C)CN1/C(=N/C2=O)Nc2ccc(C(=O)NC3CN(CCc4cc(F)c([C@H]5CCC(=O)NC5=O)c(F)c4)C3)cc21 [Example 307, (R,E)-N-(1-(4-((R)-2,6-dioxopiperidin-3-yl)-3,5-difluorophenethyl)azetidin-3-yl)-1^1,2^6,7-trimethyl-3-oxo-5^2,5^3-dihydro-1^1H,5^1H-11-oxa-4-aza-5(2,1)-benzo[d]imidazola-2(2,4)-pyridina-1(4,5)-pyrazola cycloundecaphane-5^6-carboxamide] | 1.28 | 1.78 | 84.8 | 52.25
2 | Cc1cc2cc(n1)-c1cnn(C)c1OCCC[C@@H](C)CN1/C(=N/C2=O)Nc2ccc(C(=O)N(C)C3CN(C4CCN(c5cc(F)c([C@H]6CCC(=O)NC6=O)c(F)c5)CC4)C3)cc21 [Example 309, (R,E)-N-(1-(1-(4-((R)-2,6-dioxopiperidin-3-yl)-3,5-difluorophenyl)piperidin-4-yl)azetidin-3-yl)-N,1′,2^6,7-tetramethyl-3-oxo-5^2,5^3-dihydro-1^1H,5^1H-11-oxa-4-aza-5(2,1)-benzo[d]imidazola-2(2,4)-pyridina-1(4,5)-pyrazolacycloundecaphane-5^6-carboxamide] | 0.684 | 0.459 | 83 | 65.2
3 | Cc1cc2cc(n1)-c1cnn(C)c1OCCC[C@@H](C)CN1/C(=N/C2=O)Nc2ccc(C(=O)N3CCC(C4CN(CCc5cc(F)c([C@H]6CCC(=O)NC6=O)c(F)c5)C4)CC3)cc21 [Example 312, (R)-3-(2,6-difluoro-4-(2-(3-(1-((R,E)-1^1,2^6,7-trimethyl-3-oxo-5^2,5^3-dihydro-1^1H,5^1H-11-oxa-4-aza-5(2,1)-benzo[d]imidazola-2(2,4)-pyridina-1(4,5)-pyrazolacycloundecaphane-5^6-carbonyl)piperidin-4-yl)azetidin-1-yl)ethyl)phenyl)piperidine-2,6-dione] | 0.689 | 0.906 | 85.8 | 47.95
4 | Cc1cc2cc(n1)-c1cnn(C)c1OCCC[C@@H](C)CN1/C(=N/C2=O)Nc2ccc(C(=O)N(C)C3CCN(CCc4cccc5c4n(C)c(=O)n5C4CCC(=O)NC4=O)CC3)cc21 (stereo partly drawn) [Example 314, (7R,E)-N-(1-(2-(1-(2,6-dioxopiperidin-3-yl)-3-methyl-2-oxo-2,3-dihydro-1H-benzo[d]imidazol-4-yl)ethyl)piperidin-4-yl)-N,1^1,2^6,7-tetramethyl-3-oxo-5^2,5′-dihydro-1^1H,5^1H-11-oxa-4-aza-5(2,1)-benzo[d]imidazola-2(2,4)-pyridina-1(4,5)-pyrazolacycloundecaphane-5^6-carboxamide] | 3.37 | 2.59 | 75.3 | 50.86
5 | Cc1cc2cc(n1)-c1cnn(C)c1OCCC[C@@H](C)CN1/C(=N/C2=O)Nc2ccc(C(=O)N(C)C3CCN(CCc4cccc5c4C(C)(C)C(=O)N5C4CCC(=O)NC4=O)CC3)cc21 (stereo partly drawn) [Example 317, (7R,E)-N-(1-(2-(1-(2,6-dioxopiperidin-3-yl)-3,3-dimethyl-2-oxoindolin-4-yl)ethyl)piperidin-4-yl)-N,1^1,2^6,7-tetramethyl-3-oxo-5^2,5^3-dihydro-1^1H,5^1H-11-oxa-4-aza-5(2,1)-benzo[d]imidazola-2(2,4)-pyridina-1(4,5)-pyrazolacycloundecaphane-5^6-carboxamide] | 0.728 | 1.14 | 80.2 | 52.86
6 | Cc1cc2cc(n1)-c1cnn(C)c1OCCC[C@@H](C)CN1/C(=N/C2=O)Nc2ccc(CN(C)[C@@H]3CCCN(C(=O)[C@@H]4CCN(c5cc(F)c([C@H]6CCC(=O)NC6=O)c(F)c5)C4)C3)cc21 [Example 318, (R)-3-(2,6-difluoro-4-((R)-3-((R)-3-(methyl(((R,E)-1^1,2^6,7-trimethyl-3-oxo-5^2,53-dihydro-1^1H,5^1H-11-oxa-4-aza-5(2,1)-benzo[d]imidazola-2(2,4)-pyridina-1(4,5)-pyrazolacycloundecaphane-5^6-yl)methyl)amino)piperidine-1-carbonyl)pyrrolidin-1-yl)phenyl)piperidine-2,6-dione] | 0.995 | 1.33 | 76.4 | 67.67

More lines, in order of falling DC50 (Del19/T790M/C797S EGFR), values ahead:

Row | DC50 (Del19/T790M/C797S EGFR) [nM] | DC50 (L858R/T790M/C797S EGFR) [nM] | Dmax (L858R/T790M/C797S EGFR) [%] | SMILES | Dmax (%) (Del19/T790M/C797S EGFR)
7 | 3.18 | 1.37 | 80.5 | Cc1cc2cc(n1)-c1cnn(C)c1OCCC[C@@H](C)CN1/C(=N/C2=O)Nc2ccc(C(=O)N(C)C3CCN(CCc4cccc5c4oc(=O)n5C4CCC(=O)NC4=O)CC3)cc21 (stereo partly drawn) [Example 315, (7R,E)-N-(1-(2-(3-(2,6-dioxopiperidin-3-yl)-2-oxo-2,3-dihydrobenzo[d]oxazol-7-yl)ethyl)piperidin-4-yl)-N,1^1,2,7-tetramethyl-3-oxo-5^2,5^3-dihydro-1^1H,5^1H-11-oxa-4-aza-5(2,1)-benzo[d]imidazola-2(2,4)-pyridina-1(4,5)-pyrazolacycloundecaphane-5^6-carboxamide] | 63.86
8 | 0.967 | 1.25 | 81 | Cc1cc2cc(n1)-c1cnn(C)c1OCCC[C@@H](C)CN1/C(=N/C2=O)Nc2ccc(C(=O)OC3CCN(CCc4cc(F)c([C@H]5CCC(=O)NC5=O)c(F)c4)CC3)cc21 [Example 313, 1-(4-((R)-2,6-dioxopiperidin-3-yl)-3,5-difluorophenethyl)piperidin-4-yl (R,E)-1^1,2^6,7-trimethyl-3-oxo-5^2,5^3-dihydro-1^1H,5^1H-11-oxa-4-aza-5(2,1)-benzo[d]imidazola-2(2,4)-pyridina-1(4,5)-pyrazolacycloundecaphane-5^6-carboxylate] | 70.56
9 | 0.925 | 0.655 | 77.9 | Cc1cc2cc(n1)-c1cnn(C)c1OCCC[C@@H](C)CN1/C(=N/C2=O)Nc2ccc(C(=O)N(C)C3CCN(CCc4cccc5c4C4(CC4)C(=O)N5C4CCC(=O)NC4=O)CC3)cc21 (stereo partly drawn) [Example 316, (7R,E)-N-(1-(2-(1′-(2,6-dioxopiperidin-3-yl)-2′-oxospiro[cyclopropane-1,3′-indolin]-4′-yl)ethyl)piperidin-4-yl)-N,1^1,2^6,7-tetramethyl-3-oxo-5^2,5′-dihydro-1^1H,5^1H-11-oxa-4-aza-5(2,1)-benzo[d]imidazola-2(2,4)-pyridina-1(4,5)-pyrazolacycloundecaphane-5^6-carboxamide] | 47.67
10 | 0.674 | 0.591 | 86.2 | Cc1cc2cc(n1)-c1cnn(C)c1OCCC[C@@H](C)CN1/C(=N/C2=O)Nc2ccc(N3CCN(CCc4cc(F)c([C@H]5CCC(=O)NC5=O)c(F)c4)CC3)cc21 [Example 320, (R)-3-(2,6-difluoro-4-(2-(4-((R,E)-1^1,26,7-trimethyl-3-oxo-5^2,5^3-dihydro-1^1H,5^1H-11-oxa-4-aza-5(2,1)-benzo[d]imidazola-2(2,4)-pyridina-1(4,5)-pyrazolacycloundecaphane-5^6-yl)piperazin-1-yl)ethyl)phenyl)piperidine-2,6-dione] | 71.04
11 | 0.646 | 0.702 | 88.5 | Cc1cc2cc(n1)-c1cnn(C)c1OCCC[C@@H](C)CN1/C(=N/C2=O)Nc2ccc(C(=O)N(C)C3CN(CCc4cc(F)c([C@H]5CCC(=O)NC5=O)c(F)c4)C3)cc21 [Example 308] | 64.88
12 | 0.643 | 1.26 | 83.4 | Cc1cc2cc(n1)-c1cnn(C)c1OCCC[C@@H](C)CN1/C(=N/C2=O)Nc2ccc(CN(C)[C@H]3CCCN(C(=O)[C@@H]4CCN(c5cc(F)c([C@H]6CCC(=O)NC6=O)c(F)c5)C4)C3)cc21 [Example 319, (R)-3-(2,6-difluoro-4-((R)-3-((S)-3-(methyl(((R,E)-1^1,2^6,7-trimethyl-3-oxo-5^2,5^3-dihydro-1^1H,5′ H-11-oxa-4-aza-5(2,1)-benzo[d]imidazola-2(2,4)-pyridina-1(4,5)-pyrazolacycloundecaphane-5^6-yl)methyl)amino)piperidine-1-carbonyl)pyrrolidin-1-yl)phenyl)piperidine-2,6-dione] | 74.25
13 | 0.614 | 0.742 | 84.3 | Cc1cc2cc(n1)-c1cnn(C)c1OCCC[C@@H](C)CN1/C(=N/C2=O)Nc2ccc(C(=O)N3CC(N(C)CCc4cc(F)c([C@H]5CCC(=O)NC5=O)c(F)c4)C3)cc21 [Example 306, (R)-3-(2,6-difluoro-4-(2-(methyl(1-((R,E)-1^1,2^6,7-trimethyl-3-oxo-5^2,5^3-dihydro-1^1H,5^1H-11-oxa-4-aza-5(2,1)-benzo[d]imidazola-2(2,4)-pyridina-1(4,5)-pyrazolacycloundecaphane-5^6-carbonyl)azetidin-3-yl)amino)ethyl)phenyl)piperidine-2,6-dione] | 63.09
14 | 0.578 | 0.464 | 87.8 | Cc1cc2cc(n1)-c1cnn(C)c1OCCC[C@@H](C)CN1/C(=N/C2=O)Nc2ccc(C(=O)N3CCC4(CC3)CN(CCc3cc(F)c([C@H]5CCC(=O)NC5=O)c(F)c3)C4)cc21 [Example 310, (R)-3-(2,6-difluoro-4-(2-(7-((R,E)-1^1,2^6,7-trimethyl-3-oxo-5^2,5^3-dihydro-1^1H,5^1H-11-oxa-4-aza-5(2,1)-benzo[d]imidazola-2(2,4)-pyridina-1(4,5)-pyrazolacycloundecaphane-5^6-carbonyl)-2,7-diazaspirononan-2-yl)ethyl)phenyl)piperidine-2,6-dione] | 80.51

Source: patent US20240342292A1, “Compounds for the Degradation of EGFR Kinase” (BeiGene Switzerland GmbH, priority 2021, published 2024)
